What was measured:
[1] = molecular target: T1, DDB1DB/DCAF15 and RBM39 R1R2 complex (Homo sapiens, UniProt Q14498+Q66K64); experiment: DCAF15 RBM39 Complex Formation Assay (FRET); type: binding; conditions: FRET ratio Em 665/Em 615, incubated overnight at 4° C.
T1 construct: Amino acids 150 to 331 of RBM39 were cloned into pGEX4T3; GST (from vector pGEX4T3); TEV cleavage site (N); made in house; host or cells: DDB1DB/His-DCAF15: baculovirus/Sf9 co-expression; RBM39 R1R2: E. coli (pGEX4T3)
Procedure, shortened: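 Ternary complex formation read by TR-FRET (Em 665/615, excitation 340 nm) after overnight incubation at 4° C of 20 nM baculovirus DDB1DB/His-DCAF15 and 50 nM E. coli RBM39 RRM1-RRM2 FLAG fragment with 14-point, 3-fold compound dilutions from 1 μM; EC50 from 4-parameter fit.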

[2] = tested on: HCT116 human colorectal carcinoma cells; experiment: CellTiter-Glo Luminescent Cell Viability Assay; type: cell-based; conditions: HCT-116, 72 h, 3 days
Procedure, shortened: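 HCT116 cells were exposed for 3 days to compound in triplicate at final concentrations of 5 to 0.0002 […] (1:3 dilutions). Viability was read by CellTiter-Glo luminescence, and IC50 values were calculated.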

T1 sequence (Q66K64 whole entry, the tested form may be a part): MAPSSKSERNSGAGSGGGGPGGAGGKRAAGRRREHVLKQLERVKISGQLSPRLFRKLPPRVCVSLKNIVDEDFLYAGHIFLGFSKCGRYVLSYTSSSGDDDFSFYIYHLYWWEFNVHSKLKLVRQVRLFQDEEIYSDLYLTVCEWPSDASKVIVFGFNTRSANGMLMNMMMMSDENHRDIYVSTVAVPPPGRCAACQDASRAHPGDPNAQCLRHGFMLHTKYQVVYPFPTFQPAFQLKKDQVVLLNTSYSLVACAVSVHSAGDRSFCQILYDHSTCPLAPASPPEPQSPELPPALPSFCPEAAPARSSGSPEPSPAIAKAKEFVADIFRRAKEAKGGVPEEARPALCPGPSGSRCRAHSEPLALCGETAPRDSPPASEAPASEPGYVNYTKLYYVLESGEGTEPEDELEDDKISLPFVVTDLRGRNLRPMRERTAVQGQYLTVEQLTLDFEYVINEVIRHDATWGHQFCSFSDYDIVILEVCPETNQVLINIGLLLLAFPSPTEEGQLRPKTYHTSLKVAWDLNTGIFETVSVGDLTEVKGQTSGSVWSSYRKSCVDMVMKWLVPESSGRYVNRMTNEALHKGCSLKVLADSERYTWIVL
T1 sequence (Q14498 150-331): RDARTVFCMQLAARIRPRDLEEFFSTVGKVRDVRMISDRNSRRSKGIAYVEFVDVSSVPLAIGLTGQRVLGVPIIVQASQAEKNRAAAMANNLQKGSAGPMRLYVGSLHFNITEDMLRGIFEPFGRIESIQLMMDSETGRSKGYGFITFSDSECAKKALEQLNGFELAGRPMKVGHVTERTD
T1 sequence (Q16531 with tags, fused parts or gaps DEL396-708 partner): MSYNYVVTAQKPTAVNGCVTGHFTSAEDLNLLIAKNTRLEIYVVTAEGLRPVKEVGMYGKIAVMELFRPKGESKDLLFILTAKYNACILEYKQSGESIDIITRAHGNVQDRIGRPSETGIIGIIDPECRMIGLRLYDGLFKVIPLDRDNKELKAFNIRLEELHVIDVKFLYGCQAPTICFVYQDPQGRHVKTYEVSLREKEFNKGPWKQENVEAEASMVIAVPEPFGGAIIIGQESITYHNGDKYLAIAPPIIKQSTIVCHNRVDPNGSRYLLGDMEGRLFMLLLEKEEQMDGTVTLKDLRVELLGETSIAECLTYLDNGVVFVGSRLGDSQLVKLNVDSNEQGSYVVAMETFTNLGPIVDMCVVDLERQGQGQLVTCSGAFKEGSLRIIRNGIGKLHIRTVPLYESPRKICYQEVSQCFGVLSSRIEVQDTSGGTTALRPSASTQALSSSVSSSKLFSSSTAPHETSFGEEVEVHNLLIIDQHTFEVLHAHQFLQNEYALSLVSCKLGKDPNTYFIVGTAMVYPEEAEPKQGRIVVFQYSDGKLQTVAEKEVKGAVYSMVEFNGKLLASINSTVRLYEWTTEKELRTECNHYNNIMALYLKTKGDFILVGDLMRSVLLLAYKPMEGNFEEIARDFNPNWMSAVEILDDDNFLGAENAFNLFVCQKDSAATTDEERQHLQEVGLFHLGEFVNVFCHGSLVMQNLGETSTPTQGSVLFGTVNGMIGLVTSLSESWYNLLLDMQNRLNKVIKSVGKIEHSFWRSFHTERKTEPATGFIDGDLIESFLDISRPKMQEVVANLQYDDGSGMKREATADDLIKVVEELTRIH

Row | SMILES | IC50 [1] [nM] | EC50 [2] [nM]
1 | CC(CO)(CO)n1cc(S(=O)(=O)Nc2ccc(Cl)c3c(Cl)c[nH]c23)cn1 [Compound 173, N-(3,4-dichloro-1H-indol-7-yl)-1-[2-hydroxy-1-(hydroxymethyl)-1-methyl-ethyl]pyrazole-4-sulfonamide] | < 250 | < 250
2 | N#Cc1c[nH]c2c(NS(=O)(=O)c3cnn([C@H]4C[C@@H](O)C4)c3)ccc(Cl)c12 [Compound 174, N-(4-chloro-3-cyano-1H-indol-7-yl)-1-(3-hydroxycyclobutyl)pyrazole-4-sulfonamide] | < 250 | 250 to 1000
3 | N#Cc1c[nH]c2c(NS(=O)(=O)c3cnn([C@H]4C[C@H](O)C4)c3)ccc(Cl)c12 [Compound 175, N-(4-chloro-3-cyano-1H-indol-7-yl)-1-(3-hydroxycyclobutyl)pyrazole-4-sulfonamide] | < 250 | 250 to 1000
4 | O=S(=O)(Nc1ccc(Cl)c2c(Cl)c[nH]c12)c1cnn(C(CO)CO)c1 [Compound 176, N-(3,4-dichloro-1H-indol-7-yl)-1-[2-hydroxy-1-(hydroxymethyl)ethyl]pyrazole-4-sulfonamide] | < 250 | 250 to 1000
5 | CC(C)(O)Cn1cc(S(=O)(=O)Nc2ccc(Cl)c3c(Cl)c[nH]c23)cn1 [Compound 177, N-(3,4-dichloro-1H-indol-7-yl)-1-(2-hydroxy-2-methyl-propyl)pyrazole-4-sulfonamide] | < 250 | 250 to 1000
6 | CC(C)(N)Cn1cc(S(=O)(=O)Nc2ccc(Cl)c3c(C#N)c[nH]c23)cn1 [Compound 178, 1-(2-amino-2-methyl-propyl)-N-(4-chloro-3-cyano-1H-indol-7-yl)pyrazole-4-sulfonamide] | < 250 | > 1000
7 | N#Cc1c[nH]c2c(NS(=O)(=O)c3cnn(CC4(O)CCC4)c3)ccc(Cl)c12 [Compound 179, N-(4-chloro-3-cyano-1H-indol-7-yl)-1-[(1-hydroxycyclobutyl)methyl]pyrazole-4-sulfonamide] | < 250 | 250 to 1000
8 | Cn1ncc(S(=O)(=O)Nc2ccc(Cl)c3c(C#N)c[nH]c23)c1N [Compound 180, 5-amino-N-(4-chloro-3-cyano-1H-indol-7-yl)-1-methyl-pyrazole-4-sulfonamide] | < 250 | < 250
9 | CS(=O)(=O)Cn1cc(S(=O)(=O)Nc2ccc(Cl)c3c(Cl)c[nH]c23)cn1 [Compound 181, N-(3,4-dichloro-1H-indol-7-yl)-1-(methylsulfonylmethyl)pyrazole-4-sulfonamide] | < 250 | < 250
10 | CS(=O)(=O)Cn1cc(S(=O)(=O)Nc2ccc(Cl)c3c(C#N)c[nH]c23)cn1 [Compound 182, N-(4-chloro-3-cyano-1H-indol-7-yl)-1-(methylsulfonylmethyl)pyrazole-4-sulfonamide] | < 250 | 250 to 1000
11 | N#Cc1c[nH]c2c(NS(=O)(=O)c3cnn(CC4(C#N)CC4)c3)ccc(Cl)c12 [Compound 183, N-(4-chloro-3-cyano-1H-indol-7-yl)-1-[(1-cyanocyclopropyl)methyl]pyrazole-4-sulfonamide] | < 250 | 250 to 1000
12 | N#Cc1c[nH]c2c(NS(=O)(=O)c3cnn(CC4(O)CCOCC4)c3)ccc(Cl)c12 [Compound 184, N-(4-chloro-3-cyano-1H-indol-7-yl)-1-[(4-hydroxytetrahydropyran-4-yl)methyl]pyrazole-4-sulfonamide] | < 250 | > 1000
13 | CC(C)(O)Cn1ncc(S(=O)(=O)Nc2ccc(Cl)c3c(C#N)c[nH]c23)c1F [Compound 188, N-(4-chloro-3-cyano-1H-indol-7-yl)-5-fluoro-1-(2-hydroxy-2-methyl-propyl)pyrazole-4-sulfonamide] | < 250 | 250 to 1000
14 | COC1CC(n2cc(S(=O)(=O)Nc3ccc(Cl)c4c(C#N)c[nH]c34)cn2)C1 (stereo not drawn) [Compound 189, N-(4-chloro-3-cyano-1H-indol-7-yl)-1-(3-methoxycyclobutyl)pyrazole-4-sulfonamide] | < 250 | 250 to 1000
15 | COC1CC(n2cc(S(=O)(=O)Nc3cccc4c(Cl)c[nH]c34)cn2)C1 (stereo not drawn) [Compound 190, N-(3-chloro-1H-indol-7-yl)-1-(3-methoxycyclobutyl)pyrazole-4-sulfonamide] | < 250 | 250 to 1000
16 | N#Cc1c[nH]c2c(NS(=O)(=O)c3cnn(C4(CO)CCC4)c3)ccc(Cl)c12 [Compound 191, N-(4-chloro-3-cyano-1H-indol-7-yl)-1-[1-(hydroxymethyl)cyclobutyl]pyrazole-4-sulfonamide] | < 250 | < 250
17 | CC(C)(O)Cn1cc(S(=O)(=O)Nc2ccc(F)c3c(C#N)c[nH]c23)cn1 [Compound 192, N-(3-cyano-4-fluoro-1H-indol-7-yl)-1-(2-hydroxy-2-methyl-propyl)pyrazole-4-sulfonamide] | < 250 | > 1000

Row | SMILES | IC50 [1] [nM] | EC50 [2] [nM]
18 | Cc1ccc(NS(=O)(=O)c2cnn([C@H]3C[C@@H](O)C3)c2)c2[nH]cc(C#N)c12 [Compound 193, N-(3-cyano-4-methyl-1H-indol-7-yl)-1-(3-hydroxycyclobutyl)pyrazole-4-sulfonamide] | < 250 | 250 to 1000
19 | O=S(=O)(Nc1cccc2c(Cl)c[nH]c12)c1cnn([C@H]2C[C@@H](O)C2)c1 [Compound 194, N-(3-chloro-1H-indol-7-yl)-1-(3-hydroxycyclobutyl)pyrazole-4-sulfonamide] | < 250 | > 1000
20 | N#Cc1c[nH]c2c(NS(=O)(=O)c3cnn(CC4(CO)CC4)c3)ccc(Cl)c12 [Compound 195, N-(4-chloro-3-cyano-1H-indol-7-yl)-1-[[1-(hydroxymethyl)cyclopropyl]methyl]pyrazole-4-sulfonamide] | < 250 | 250 to 1000
21 | C[C@H](O)Cn1cc(S(=O)(=O)Nc2ccc(Cl)c3c(C#N)c[nH]c23)cn1 [Compound 196, N-(4-chloro-3-cyano-1H-indol-7-yl)-1-[(2S)-2-hydroxypropyl]pyrazole-4-sulfonamide] | < 250 | 250 to 1000
22 | C[C@@H](O)Cn1cc(S(=O)(=O)Nc2ccc(Cl)c3c(C#N)c[nH]c23)cn1 [Compound 197, N-(4-chloro-3-cyano-1H-indol-7-yl)-1-[(2R)-2-hydroxypropyl]pyrazole-4-sulfonamide] | < 250 | 250 to 1000
23 | Cc1ccc(NS(=O)(=O)c2cnn(C(C)(C)CO)c2)c2[nH]cc(C#N)c12 [Compound 198, N-(3-cyano-4-methyl-1H-indol-7-yl)-1-(2-hydroxy-1,1-dimethyl-ethyl)pyrazole-4-sulfonamide] | < 250 | < 250
24 | CC(C)(O)Cn1cc(S(=O)(=O)Nc2ccc(Cl)c3c(C#N)c[nH]c23)c(F)n1 [Compound 204, N-(4-chloro-3-cyano-1H-indol-7-yl)-3-fluoro-1-(2-hydroxy-2-methyl-propyl)pyrazole-4-sulfonamide] | < 250 | > 1000
25 | Cc1ccc(NS(=O)(=O)c2cn(CC(C)(C)O)nc2F)c2[nH]cc(C#N)c12 [Compound 205, N-(3-cyano-4-methyl-1H-indol-7-yl)-3-fluoro-1-(2-hydroxy-2-methyl-propyl)pyrazole-4-sulfonamide] | < 250 | 250 to 1000
26 | CC(C)(O)Cn1cc(S(=O)(=O)Nc2ccc(F)c3c(C#N)c[nH]c23)c(F)n1 [Compound 206, N-(3-cyano-4-fluoro-1H-indol-7-yl)-3-fluoro-1-(2-hydroxy-2-methyl-propyl)pyrazole-4-sulfonamide] | < 250 | > 1000
27 | Cc1ccc(NS(=O)(=O)c2cnn([C@H](C)CO)c2)c2[nH]cc(C#N)c12 [Compound 207, (R)—N-(3-cyano-4-methyl-1H-indol-7-yl)-1-(1-hydroxypropan-2-yl)-1H-pyrazole-4-sulfonamide] | < 250 | < 250
28 | C[C@H](CO)n1cc(S(=O)(=O)Nc2ccc(Cl)c3c(C#N)c[nH]c23)cn1 [Compound 208, (R)—N-(4-chloro-3-cyano-1H-indol-7-yl)-1-(1-hydroxypropan-2-yl)-1H-pyrazole-4-sulfonamide] | < 250 | 250 to 1000
29 | N#Cc1c[nH]c2c(NS(=O)(=O)c3cnn(CCCO)c3)ccc(Cl)c12 [Compound 209, N-(4-chloro-3-cyano-1H-indol-7-yl)-1-(3-hydroxypropyl)-1H-pyrazole-4-sulfonamide] | < 250 | 250 to 1000
30 | Cc1ccc(NS(=O)(=O)c2cnn(CCCO)c2)c2[nH]cc(C#N)c12 [Compound 210, N-(3-cyano-4-methyl-1H-indol-7-yl)-1-(3-hydroxypropyl)pyrazole-4-sulfonamide] | < 250 | 250 to 1000
31 | N#Cc1c[nH]c2c(NS(=O)(=O)c3cnn(CCCO)c3)ccc(F)c12 [Compound 211, N-(3-cyano-4-fluoro-1H-indol-7-yl)-1-(3-hydroxypropyl)pyrazole-4-sulfonamide] | < 250 | 250 to 1000
32 | C[C@H](CO)n1cc(S(=O)(=O)Nc2ccc(F)c3c(C#N)c[nH]c23)cn1 [Compound 212, (R)—N-(3-cyano-4-fluoro-1H-indol-7-yl)-1-(1-hydroxypropan-2-yl)-1H-pyrazole-4-sulfonamide] | < 250 | 250 to 1000
33 | C[C@H](C(N)=O)n1cc(S(=O)(=O)Nc2ccc(Cl)c3c(C#N)c[nH]c23)cn1 [Compound 213, (2R)-2-[4-[(4-chloro-3-cyano-1H-indol-7-yl)sulfamoyl]pyrazol-1-yl]propanamide] | < 250 | 250 to 1000
